According to US20130197080A1, “USE OF TERIFLUNOMIDE FOR TREATING MULTIPLE SCLEROSIS” (SANOFI, priority 2010, published 2013):
“And” between values parts separate entries of the source, which are not always exact repeats. Identical values can stand only once.

Tested on: patients with RMS
Assay: TEMSO Phase III trial: safety and tolerability (adverse events, laboratory tests)
Conditions: for incidence of ALT increase (≧1×ULN) / incidence of ALT ≧3×ULN: laboratory; for proportion of patients with TEAEs potentially related to hypersensitivity/skin disorders: selected SMQs terms; for patients with increased ALT ≧3×ULN and total bilirubin ≧2×ULN: considered non drug-induced
[1] = 7 mg once daily oral, safety population (N = 368)
[2] = 14 mg once daily oral, safety population (N = 358)
[3] = teriflunomide treatment, occurred over the first 3 months, slightly more marked with 14 mg

Protocol: Following a screening phase of up to 4 weeks, eligible patients were randomized (1:1:1) to receive a once-daily oral dose of placebo or teriflunomide, 7 mg or 14 mg, for 108 weeks. Randomization was stratified by baseline EDSS score (≦3.5 and >3.5) and by trial site. Participants successfully completing the study were eligible to enter a long-term extension.
Safety was evaluated by the occurrence of adverse events reported by the patient or the investigator. Laboratory tests were performed during screening, at baseline, and then every 2 weeks for the first 24 weeks, then every 6 weeks until study completion. Physical and neurologic examinations were performed at Week 12 and then every 24 weeks. An abdominal ultrasound to assess pancreatic abnormalities was done prior to the study and then every 24 weeks.
Laboratory testing of liver function and complete blood cell count with differential were performed at baseline, then every 2 weeks for the first 24 weeks of treatment and every 6 weeks thereafter. Patients with any of the following adverse events were discontinued from the study and were subsequently followed-up: • Any confirmed increase (repeated value within 48 hours) in alanine aminotransferase (≧3×ULN) with or without increase in total bilirubin level • Any occurrence of confirmed neutrophil count less than 1.0×10^9 cells/L with or without infection • Any potentially life-threatening cytopenias detected during the follow-up of laboratory abnormalities as per the investigator's judgment
Laboratory testing of pancreatic enzymes was performed at baseline, then every 2 weeks for the first 24 weeks of treatment and every 6 weeks thereafter. An abdominal ultrasound was performed at baseline and then every 24 weeks until study completion. Any suspected abnormal ultrasound was followed up with a CT scan with contrast, or by MRI.
Serum pregnancy testing was performed at baseline, Week 10, Week 24 and then every 12 weeks thereafter. If the pregnancy test was positive, the study medication was discontinued, and the physician was required to inform the patient of the risk of pregnancy and to discuss the potential alternatives. If the patient decided to continue with their pregnancy, a washout was required. If the patient decided not to continue with their pregnancy, the study medication could be resumed 2 weeks after termination of the pregnancy.

## C/C(O)=C(\C#N)C(=O)Nc1ccc(C(F)(F)F)cc1 [teriflunomide, (Z)-2-cyano-3-hydroxy-but-2-enoic acid-(4′-trifluoromethylphenyl)-amide]
7 mg (N = 368)
  Serious adverse event, Blood disorders: Anemia: 1 (0.3%) n (%)
  Serious adverse event, Blood disorders: Neutropenia: 0 n (%)
  Serious adverse event, Blood disorders: Neutrophil count decreased: 0 n (%)
  Serious adverse event, Hepatic and hepatobiliary disorders: Alanine aminotransferase increased: 5 (1.4%) n (%)
  Serious adverse event, Hepatic and hepatobiliary disorders: Hepatic enzyme increased: 0 n (%)
  Serious adverse event, Hepatic and hepatobiliary disorders: Hepatitis toxic: 0 n (%)
  Serious adverse event, Hepatic and hepatobiliary disorders: Liver injury: 1 (0.3%) n (%)
  Serious adverse event, Hepatic and hepatobiliary disorders: Transaminases increased: 1 (0.3%) n (%)
  Serious adverse event, Infections: Appendicitis: 2 (0.5%) n (%)
  Serious adverse event, Infections: Bacteremia: 0 n (%)
  Serious adverse event, Infections: Cellulitis: 0 n (%)
  Serious adverse event, Infections: Cytomegalovirus hepatitis: 0 n (%)
  Serious adverse event, Infections: Erysipelas: 1 (0.3%) n (%)
  Serious adverse event, Infections: Gastroenteritis: 0 n (%)
  Serious adverse event, Infections: Hepatitis C: 0 n (%)
  Serious adverse event, Infections: Herpes zoster: 0 n (%)
  Serious adverse event, Infections: Infected cyst: 1 (0.3%) n (%)
  Serious adverse event, Infections: Lung infection: 0 n (%)
  Serious adverse event, Infections: Pneumonia: 2 (0.5%) n (%)
  Serious adverse event, Infections: Pyelonephritis: 0 n (%)
  Serious adverse event, Infections: Renal abscess: 0 n (%)
  Serious adverse event, Infections: Urinary tract infection: 0 n (%)
  Serious adverse event, Infections: Urinary tract infection enterococcal: 0 n (%)
  Serious adverse event, Malignant neoplasms: Breast cancer: 0 n (%)
  Serious adverse event, Malignant neoplasms: Cervix carcinoma stage 0: 0 n (%)
  Serious adverse event, Malignant neoplasms: Thyroid cancer: 0 n (%)
  Serious adverse event, Pancreatic disorders: Lipase increased: 2 (0.5%) n (%)
  Serious adverse event, Pancreatic disorders: Pancreatitis: 0 n (%)
  TEAE potentially related to hypersensitivity/skin reactions: Erythema: 7 (1.9%) n (%)
  TEAE potentially related to hypersensitivity/skin reactions: Pruritus: 13 (3.5%) n (%)
  TEAE potentially related to hypersensitivity/skin reactions: Pruritus rash: 2 (0.5%) n (%)
  TEAE potentially related to hypersensitivity/skin reactions: Urticaria: 4 (1.1%) n (%)
7 mg group
  Polyneuropathy incidence: 0.3%
  TEAEs (patients): 89.1%
  TEAEs leading to treatment discontinuation: 9.8%
  diarrhea leading to treatment discontinuation: 0.3%
  hair thinning/decreased hair density leading to treatment discontinuation: 0.5%
  incidence of serious hepatic disorders (ALT >8×ULN and/or ALT >3×ULN with total bilirubin >3 mg/dL and/or any hepatic event with seriousness criterion): 1.9%
  incidence of serious infections: 1.6%
  induced abortions among pregnancies during the trial: 5
  nausea leading to treatment discontinuation: 0.3%
  neutropenia disorders (patients): 2.2%
  patients with mild or moderate peripheral neuropathy with conduction confirmation: four
  proportion of patients experiencing any bone marrow TEAE: 9.8%
  proportion of patients with TEAEs related to blood pressure increase: 5.4%
  serious TEAEs (patients): 14.1%
  incidence of ALT increase (≧1×ULN): 54.0%
  incidence of ALT ≧3×ULN: 6.3%
  proportion of patients with TEAEs potentially related to hypersensitivity/skin disorders: 10.3%
  patients with increased ALT ≧3×ULN and total bilirubin ≧2×ULN: one
7 mg group, single patient
  neutrophil count decrease in case of neutropenia leading to treatment discontinuation: 8.7e+08 L⁻¹
7 mg group, single patient, three days after treatment discontinuation
  neutrophil count after recovery: 1.34e+09 L⁻¹
[1]
  Any event leading to death: 0 n (%)
  Any treatment emergent adverse event leading to discontinuation of study drug: 36 (9.8) n (%)
  Any treatment emergent serious adverse event: 52 (14.1) n (%)
  At least one treatment emergent adverse event: 328 (89.1) n (%)
  TEAE Alanine aminotransferase increased (reported as adverse event by the investigator): 44 (12.0) no. of patients (%)
  TEAE Back pain: 39 (10.6) no. of patients (%)
  TEAE Diarrhea: 54 (14.7) no. of patients (%)
  TEAE Fatigue: 47 (12.8) no. of patients (%)
  TEAE Hair thinning/decreased hair density (MedDRA: alopecia): 38 (10.3) no. of patients (%)
  TEAE Headache: 81 (22.0) no. of patients (%)
  TEAE Nasopharyngitis: 94 (25.5) no. of patients (%)
  TEAE Nausea: 33 (9.0) no. of patients (%)
  TEAE Pain in extremity: 26 (7.1) no. of patients (%)
  TEAE Urinary tract infection: 27 (7.3) no. of patients (%)
14 mg (N = 358)
  Serious adverse event, Blood disorders: Anemia: 0 n (%)
  Serious adverse event, Blood disorders: Neutropenia: 1 (0.3%) n (%)
  Serious adverse event, Blood disorders: Neutrophil count decreased: 1 (0.3%) n (%)
  Serious adverse event, Hepatic and hepatobiliary disorders: Alanine aminotransferase increased: 5 (1.4%) n (%)
  Serious adverse event, Hepatic and hepatobiliary disorders: Hepatic enzyme increased: 1 (0.3%) n (%)
  Serious adverse event, Hepatic and hepatobiliary disorders: Hepatitis toxic: 1 (0.3%) n (%)
  Serious adverse event, Hepatic and hepatobiliary disorders: Liver injury: 0 n (%)
  Serious adverse event, Hepatic and hepatobiliary disorders: Transaminases increased: 1 (0.3%) n (%)
  Serious adverse event, Infections: Appendicitis: 0 n (%)
  Serious adverse event, Infections: Bacteremia: 1 (0.3%) n (%)
  Serious adverse event, Infections: Cellulitis: 0 n (%)
  Serious adverse event, Infections: Cytomegalovirus hepatitis: 1 (0.3%) n (%)
  Serious adverse event, Infections: Erysipelas: 0 n (%)
  Serious adverse event, Infections: Gastroenteritis: 1 (0.3%) n (%)
  Serious adverse event, Infections: Hepatitis C: 0 n (%)
  Serious adverse event, Infections: Herpes zoster: 0 n (%)
  Serious adverse event, Infections: Infected cyst: 0 n (%)
  Serious adverse event, Infections: Lung infection: 0 n (%)
  Serious adverse event, Infections: Pneumonia: 0 n (%)
  Serious adverse event, Infections: Pyelonephritis: 3 (0.8%) n (%)
  Serious adverse event, Infections: Renal abscess: 1 (0.3%) n (%)
  Serious adverse event, Infections: Urinary tract infection: 1 (0.3%) n (%)
  Serious adverse event, Infections: Urinary tract infection enterococcal: 1 (0.3%) n (%)
  Serious adverse event, Malignant neoplasms: Breast cancer: 0 n (%)
  Serious adverse event, Malignant neoplasms: Cervix carcinoma stage 0: 1 (0.3%) n (%)
  Serious adverse event, Malignant neoplasms: Thyroid cancer: 0 n (%)
  Serious adverse event, Pancreatic disorders: Lipase increased: 0 n (%)
  Serious adverse event, Pancreatic disorders: Pancreatitis: 0 n (%)
  TEAE potentially related to hypersensitivity/skin reactions: Erythema: 4 (1.1%) n (%)
  TEAE potentially related to hypersensitivity/skin reactions: Pruritus: 10 (2.8%) n (%)
  TEAE potentially related to hypersensitivity/skin reactions: Pruritus rash: 1 (0.3%) n (%)
  TEAE potentially related to hypersensitivity/skin reactions: Urticaria: 3 (0.8%) n (%)
14 mg group
  Polyneuropathy incidence: 0.8%
  TEAEs (patients): 90.8%
  TEAEs leading to treatment discontinuation: 10.9%
  diarrhea leading to treatment discontinuation: 0.3%
  hair thinning/decreased hair density leading to treatment discontinuation: 1.4%
  incidence of serious hepatic disorders (ALT >8×ULN and/or ALT >3×ULN with total bilirubin >3 mg/dL and/or any hepatic event with seriousness criterion): 2.5%
  incidence of serious infections: 2.5%
  induced abortions among pregnancies during the trial: 1
  nausea leading to treatment discontinuation: 0.0%
  neutropenia disorders (patients): 4.5%
  patients who discontinued treatment due to pruritus: One
  patients with mild or moderate peripheral neuropathy with conduction confirmation: six
  proportion of patients experiencing any bone marrow TEAE: 7.5%
  proportion of patients with TEAEs related to blood pressure increase: 5.0%
  serious TEAEs (patients): 15.9%
  spontaneous abortions among pregnancies during the trial: 3
  incidence of ALT increase (≧1×ULN): 57.3%
  incidence of ALT ≧3×ULN: 6.7%
  proportion of patients with TEAEs potentially related to hypersensitivity/skin disorders: 11.2%
  patients with increased ALT ≧3×ULN and total bilirubin ≧2×ULN: one
14 mg group, two patients
  neutrophil count in cases of moderate neutrophil count decrease (serious AEs): 9.5e+08 L⁻¹ and 9e+08 L⁻¹
14 mg group, two patients, a few days later, treatment continuing
  neutrophil count after recovery: 2.09e+09 L⁻¹ and 3.82e+09 L⁻¹
14 mg group, cervix carcinoma in situ (stage 0) after 1.5 years treatment
  patients with malignant neoplasms: one
[2]
  Any event leading to death: 0 n (%)
  Any treatment emergent adverse event leading to discontinuation of study drug: 39 (10.9) n (%)
  Any treatment emergent serious adverse event: 57 (15.9) n (%)
  At least one treatment emergent adverse event: 325 (90.8) n (%)
  TEAE Alanine aminotransferase increased (reported as adverse event by the investigator): 51 (14.2) no. of patients (%)
  TEAE Back pain: 41 (11.5) no. of patients (%)
  TEAE Diarrhea: 64 (17.9) no. of patients (%)
  TEAE Fatigue: 52 (14.5) no. of patients (%)
  TEAE Hair thinning/decreased hair density (MedDRA: alopecia): 47 (13.1) no. of patients (%)
  TEAE Headache: 67 (18.7) no. of patients (%)
  TEAE Nasopharyngitis: 93 (26.0) no. of patients (%)
  TEAE Nausea: 49 (13.7) no. of patients (%)
  TEAE Pain in extremity: 33 (9.2) no. of patients (%)
  TEAE Urinary tract infection: 37 (10.3) no. of patients (%)
Across groups
  serious opportunistic infections: no serious opportunistic infections observed
Across the three treatment groups
  increases in amylase and lipase (mean change from baseline): No increases
All groups
  deaths: No deaths occurred
  treatment discontinuation due to increased blood pressure: No patient discontinued treatment
On teriflunomide
  neutrophil count in three cases of moderate neutropenia: 9e+08 L⁻¹
Teriflunomide groups
  adverse event potentially attributed to interstitial lung disease (SMQ terms): No adverse event
  average increase in diastolic blood pressure: < 2 mmHg
  average increase in systolic blood pressure: < 4 mmHg
[3]
  mean reduction from baseline in lymphocyte counts: 3e+08 L⁻¹
  mean reduction from baseline in neutrophil counts: 1e+09 L⁻¹
